PMC4256409, “Role of Phenylalanine and Valine^10 Residues in the Antimicrobial Activity and Cytotoxicity of Piscidin-1” (PLoS ONE, 2014)
Where no end group is shown, it is not given here.

Experiments:
[1] = tested on: P. aeruginosa KCTC2513; format: cell-based, Pseudomonas aeruginosa; settings: KCTC2513, 16 h
[2] = tested on: B. subtilis KCTC1021; format: cell-based, Bacillus subtilis; settings: KCTC1021, 16 h
[3] = tested on: MDRAB CCARM 12036; format: cell-based, multidrug-resistant Acinetobacter baumanii; settings: broth microdilution, 37°C, 16 h, three independent experiments in triplicate, SD 14.0%
[4] = tested on: E. coli KCTC1682; format: cell-based, Escherichia coli; settings: KCTC1682, 16 h
[5] = tested on: S. typhimurium KCTC1926; format: cell-based, Salmonella typhimurium; settings: KCTC1926, 16 h
[6] = tested on: S. epidermidis KCTC1917; format: cell-based, Staphylococcus epidermidis; settings: KCTC1917, 16 h
[7] = tested on: MDREC CCARM 1229; format: cell-based, multidrug-resistant E. coli; settings: broth microdilution, 37°C, 16 h, three independent experiments in triplicate, SD 14.0%
[8] = tested on: MRSA CCARM 3090; format: cell-based, Methicillin-resistant S. aureus; settings: CCARM 3090, 16 h
[9] = tested on: MDRPA CCARM 2002; format: cell-based, multidrug-resistant P. aeruginosa; settings: broth microdilution, 37°C, 16 h, three independent experiments in triplicate, SD 14.0%
[10] = tested on: Standard bacterial strains; format: cell-based; settings: average over the 14 standard bacterial strains of Table 2
[11] = tested on: MDRPA CCARM 2163; format: cell-based, multidrug-resistant P. aeruginosa; settings: broth microdilution, 37°C, 16 h, three independent experiments in triplicate, SD 14.0%
[12] = tested on: MRSA CCARM3089; format: cell-based, Methicillin-resistant S. aureus; settings: CCARM3089, 16 h
[13] = tested on: MRSA CCARM 3108; format: cell-based, Methicillin-resistant S. aureus; settings: CCARM 3108, 16 h
[14] = tested on: S. aureus KCTC1916; format: cell-based, Staphylococcus aureus; settings: KCTC1916, 16 h
[15] = tested on: MDREC CCARM 1238; format: cell-based, multidrug-resistant E. coli; settings: broth microdilution, 37°C, 16 h, three independent experiments in triplicate, SD 14.0%
[16] = tested on: S. aureus KCTC1621; format: cell-based, Staphylococcus aureus; settings: KCTC1621, 16 h
[17] = tested on: E. coli KCTC2593; format: cell-based, Escherichia coli; settings: KCTC2593, 16 h
[18] = tested on: MRSA CCARM 3126; format: cell-based, Methicillin-resistant S. aureus; settings: CCARM 3126, 16 h
[19] = tested on: MDRAB CCARM 12035; format: cell-based, multidrug-resistant Acinetobacter baumanii; settings: broth microdilution, 37°C, 16 h, three independent experiments in triplicate, SD 14.0%
[20] = tested on: P. aeruginosa KCTC1637; format: cell-based, Pseudomonas aeruginosa; settings: KCTC1637, 16 h
[21] = tested on: MDRAB CCARM 12037; format: cell-based, multidrug-resistant Acinetobacter baumanii; settings: broth microdilution, 37°C, 16 h, three independent experiments in triplicate, SD 14.0%
[22] = tested on: MDRST CCARM 8003; format: cell-based, multidrug-resistant S. typhimurium; settings: broth microdilution, 37°C, 16 h, three independent experiments in triplicate, SD 14.0%
[23] = tested on: MDRAB CCARM 12005; format: cell-based, multidrug-resistant Acinetobacter baumanii; settings: broth microdilution, 37°C, 16 h, three independent experiments in triplicate, SD 14.0%
[24] = tested on: B. subtilis KCTC1022; format: cell-based, Bacillus subtilis; settings: KCTC1022, 16 h
[25] = tested on: MDRPA CCARM 2003; format: cell-based, multidrug-resistant P. aeruginosa; settings: broth microdilution, 37°C, 16 h, three independent experiments in triplicate, SD 14.0%
[26] = tested on: P. aeruginosa KCTC2004; format: cell-based, Pseudomonas aeruginosa; settings: KCTC2004, 16 h
[27] = tested on: MDRPA CCARM 2095; format: cell-based, multidrug-resistant P. aeruginosa; settings: broth microdilution, 37°C, 16 h, three independent experiments in triplicate, SD 14.0%
[28] = tested on: MDRST CCARM 8007; format: cell-based, multidrug-resistant S. typhimurium; settings: broth microdilution, 37°C, 16 h, three independent experiments in triplicate, SD 14.0%
[29] = tested on: E.coli KCTC2571; format: cell-based, Escherichia coli; settings: KCTC2571, 16 h
[30] = tested on: B. subtilis KCTC3068; format: cell-based, Bacillus subtilis; settings: KCTC3068, 16 h
[31] = tested on: MDRST CCARM 8009; format: cell-based, multidrug-resistant S. typhimurium; settings: broth microdilution, 37°C, 16 h, three independent experiments in triplicate, SD 14.0%
[32] = tested on: MRSA CCARM 3114; format: cell-based, Methicillin-resistant S. aureus; settings: CCARM 3114, 16 h
[33] = tested on: S. aureus KCTC3881; format: cell-based, Staphylococcus aureus; settings: KCTC3881, 16 h
[34] = tested on: Drug-resistant bacterial strains; settings: average over the 18 drug-resistant bacterial strains of Table 3
Text: Escherichia coli KCTC 1682, E. coli KCTC 2593, E. coli KCTC 2571, Salmonella typhimurium KCTC 1926, Pseudomonas aeruginosa KCTC 1637, P. aeruginosa KCTC 2004, P. aeruginosa KCTC 2513, Bacillus subtilis KCTC 3068, B. subtilis KCTC 1021, B. subtilis KCTC 1022, Staphylococcus epidermidis KCTC 1917, Staphylococcus aureus KCTC 1621, S. aureus KCTC 1916, and S. aureus KCTC 3881 were purchased from the Korean Collection for Type Cultures, Korea Research Institute of Bioscience & Biotechnology (Taejon, Korea). Methicillin-resistant S. aureus (MRSA) (CCARM 3089, CCARM 3090, CCARM 3108, CCARM 3114, and CCARM 3126), multidrug-resistant E. coli (MDREC) (CCARM 1229 and CCARM 1238), multidrug-resistant S. typhimurium (MDRST) (CCARM 8003, CCARM 8007, and CCARM 8009), multidrug-resistant Acinetobacter baumanii (MDRAB) (CCARM 12005, CCARM 12035, CCARM 12036, CCARM 12037), and multidrug-resistant P. aeruginosa (MDRPA) (CCARM 2002, CCARM 2003, CCARM 2095, and CCARM 2163) were obtained from the Culture Collection of Antibiotic-Resistant Microbes (CCARM) at Seoul Women’s University in Korea. The antimicrobial activities of the peptides against selected organisms, including three Gram-positive, three Gram-negative, and five antibiotic-resistant bacteria, were determined using a broth microdilution assay. Briefly, single colonies of bacteria and fungi were inoculated into Luria-Bertani (LB) medium and cultured overnight at 37°C. An aliquot of the culture was transferred to 10 mL of fresh LB and incubated for an additional 3–5 h at 37°C until it reached the mid-logarithmic phase. Two-fold serial dilutions of the peptides in 1% peptone were prepared. The serial dilutions (100 µL) were added to 100 µL of cells (2×10^6 colony-forming units (CFU)/mL) in 96-well microtiter plates and incubated at 37°C for 16 h. […] MIC values were calculated as the average of triplicate measurements from three independent assays.

Sequence | MIC [1] [µM] | MIC [2] [µM] | MIC [3] [µM] | MIC [4] [µM] | MIC [5] [µM] | MIC [6] [µM] | MIC [7] [µM] | MIC [8] [µM] | MIC [9] [µM] | Average MIC [10] [µM] | MIC [11] [µM] | MIC [12] [µM] | MIC [13] [µM] | MIC [14] [µM] | MIC [15] [µM] | MIC [16] [µM] | MIC [17] [µM] | MIC [18] [µM] | MIC [19] [µM] | MIC [20] [µM] | other results
FFHHIKRGIVHVGKTIHRLVTG [Pis-F6K] | 8.0 | 4.0 | 4.0 | 4.0 | 8.0 | 2.0 | 16 | 16 | 4.0 | 4.6 | 4.0 | 16 | 16 | 4.0 | 16 | 4.0 | 2.0 | 16 | 4.0 | 8.0 | MIC [21]: 4.0 µM; MIC [22]: 16 µM; MIC [23]: 4.0 µM; MIC [24]: 1.0 µM; MIC [25]: 4.0 µM; MIC [26]: 8.0 µM; MIC [27]: 4.0 µM; MIC [28]: 16 µM; MIC [29]: 4.0 µM; MIC [30]: 4.0 µM; MIC [31]: 16 µM; MIC [32]: 16 µM; MIC [33]: 4.0 µM; Average MIC [34]: 11 µM
KFHHIFRGIVHVGKTIHRLVTG [Pis-F1K] | 4.0 | 2.0 | 2.0 | 4.0 | 4.0 | 2.0 | 8.0 | 8.0 | 2.0 | 2.6 | 2.0 | 8.0 | 8.0 | 2.0 | 8.0 | 2.0 | 2.0 | 8.0 | 2.0 | 4.0 | MIC [21]: 2.0 µM; MIC [22]: 4.0 µM; MIC [23]: 2.0 µM; MIC [24]: 1.0 µM; MIC [25]: 2.0 µM; MIC [26]: 4.0 µM; MIC [27]: 2.0 µM; MIC [28]: 4.0 µM; MIC [29]: 2.0 µM; MIC [30]: 2.0 µM; MIC [31]: 4.0 µM; MIC [32]: 8.0 µM; MIC [33]: 2.0 µM; Average MIC [34]: 4.7 µM
FFHHIFRGIKHVGKTIHRLVTG [Pis-V10K] | 2.0 | 4.0 | 2.0 | 1.0 | 1.0 | 1.0 | 4.0 | 8.0 | 2.0 | 1.6 | 2.0 | 8.0 | 4.0 | 2.0 | 4.0 | 1.0 | 2.0 | 4.0 | 2.0 | 1.0 | MIC [21]: 2.0 µM; MIC [22]: 8.0 µM; MIC [23]: 2.0 µM; MIC [24]: 2.0 µM; MIC [25]: 2.0 µM; MIC [26]: 2.0 µM; MIC [27]: 2.0 µM; MIC [28]: 4.0 µM; MIC [29]: 2.0 µM; MIC [30]: 1.0 µM; MIC [31]: 4.0 µM; MIC [32]: 4.0 µM; MIC [33]: 1.0 µM; Average MIC [34]: 3.8 µM
FKHHIFRGIVHVGKTIHRLVTG [Pis-F2K] | 8.0 | 4.0 | 2.0 | 4.0 | 8.0 | 2.0 | 16 | 16 | 2.0 | 3.9 | 2.0 | 16 | 16 | 2.0 | 16 | 4.0 | 2.0 | 16 | 2.0 | 4.0 | MIC [21]: 2.0 µM; MIC [22]: 16 µM; MIC [23]: 2.0 µM; MIC [24]: 1.0 µM; MIC [25]: 2.0 µM; MIC [26]: 8.0 µM; MIC [27]: 2.0 µM; MIC [28]: 16 µM; MIC [29]: 2.0 µM; MIC [30]: 4.0 µM; MIC [31]: 16 µM; MIC [32]: 16 µM; MIC [33]: 2.0 µM; Average MIC [34]: 9.8 µM
FAHHIFRGIVHVGKTIHRLVTG [Pis-F2A] | 8.0 | 8.0 | 4.0 | 2.0 | 16 | 2.0 | 16 | 16 | 4.0 | 4.6 | 4.0 | 16 | 16 | 1.0 | 16 | 4.0 | 2.0 | 16 | 4.0 | 4.0 | MIC [21]: 4.0 µM; MIC [22]: 32 µM; MIC [23]: 4.0 µM; MIC [24]: 1.0 µM; MIC [25]: 4.0 µM; MIC [26]: 8.0 µM; MIC [27]: 4.0 µM; MIC [28]: 16 µM; MIC [29]: 2.0 µM; MIC [30]: 4.0 µM; MIC [31]: 16 µM; MIC [32]: 16 µM; MIC [33]: 2.0 µM; Average MIC [34]: 12 µM
